For assay [1], the system named is RNA polymerase II Serine 5 phosphorylation (CDK7) in A549 cells.
For assay [2], the system named is RNA polymerase II Serine 5 phosphorylation in A549 cells overexpressing CDK7 mutant (C312S). The assay can be described thus: Imaging-based cellular RNA PolII Ser5 phosphorylation assay in A549 cells overexpressing CDK7-mutant (C312S). As to conditions: for IC50: Homo sapiens, A549, A549 cells overexpressing CDK7 mutant (C312S), read-out: CDK7_ A549 mutant hCDK7(pIC50) (converted); for CDK7_ A549 mutant hCDK7(pIC50): A549 cells overexpressing CDK7 mutant (C312S). The assay is classed as cell-based, human. On the procedure:
Data were calculated and analyzed in Phaedra.
From this an IC50 value can be obtained.
In parallel this assay was performed in A549 cells overexpressing CDK7-mutant (C312S) to evaluate the effect of the covalent bond on potency and to screen for potential off-target effects. Mutation of Cysteine to Serine (C312S), a less nucleophilic amino acid, prevents CDK7 inhibitors from covalently binding to CDK7 and from inhibiting CDK7 activity in an irreversible manner. A stably transduced A549 cell pool was generated that overexpresses CDK7 mutant (C312S), but also expresses endogenous CDK7-WT. Covalent binders targeting the cysteine at position 312 will show a shift in potency in A549 cells overexpressing mutant C312S CDK7.

Take `C=CC(=O)N1CC[C@H](N2CC(c3cc4c(c(C5CC5)c3)O[C@@H](C)c3c(ncnc3N3CCS(=O)(=O)CC3)N4)C2)C1` (single isomer, unassigned) [compound 99]: the figures for the IC50 in assay [1] and in assay [2] were roughly 0.794 µM and greater than 10 µM, respectively.
The corresponding values for `C=CC(=O)N1CC(N2CC(c3cc(C)c4c(c3)Nc3ncnc(-c5cnn(C)c5)c3[C@H](C)O4)C2)C1` (single isomer, unassigned) [compound 108] are greater than 10 µM and greater than 10 µM.
The corresponding values for `CC#CC(=O)N1CC[C@H](N2CCC(c3cc(C)c4c(c3)Nc3ncnc(N5CCS(=O)(=O)CC5)c3CO4)CC2)C1` (single isomer, unassigned) [compound 134] are 0.0832 µM and greater than 10 µM.
Taken in the same sequence, the figures for `CC#CC(=O)N1CC[C@@H](N2CCC(c3cc(C)c4c(c3)Nc3ncnc(N5CCS(=O)(=O)CC5)c3CO4)CC2)C1` (single isomer, unassigned) [compound 135] were roughly 0.0501 µM and greater than 10 µM.
As to `CC#CC(=O)N1CC[C@@](C)(N2CCC(c3cc(C)c4c(c3)Nc3ncnc(N5CCS(=O)(=O)CC5)c3[C@@H](C)O4)CC2)C1` (single isomer, unassigned) [compound 145], the IC50 in assay [1] was roughly 0.0145 µM; in assay [2], 4.57 µM.
For the compound `CC#CC(=O)N1CC[C@](C)(N2CCC(c3cc(C)c4c(c3)Nc3ncnc(N5CCS(=O)(=O)CC5)c3[C@@H](C)O4)CC2)C1` (single isomer, unassigned) [compound 146], the values for the IC50 in assay [1] and in assay [2] were less than 0.00245 µM and 4.37 µM, respectively.
Taken in the same sequence, the figures for `[2H][C@]1(N2CC(c3cc(C)c4c(c3)Nc3ncnc(N5CCS(=O)(=O)CC5)c3[C@@H](C)O4)C2)CCN(C(=O)C#CC)C1` (single isomer, unassigned) [compound 159] were 0.178 µM and greater than 10 µM.
Taken in the same sequence, the figures for `[2H]C([2H])([2H])C#CC(=O)N1CC[C@@H](N2CC(c3cc(C)c4c(c3)Nc3ncnc(N5CCS(=O)(=O)CC5)c3[C@@H](C)O4)C2)C1` (single isomer, unassigned) [compound 165] were 0.105 µM and greater than 10 µM.
Taken in the same sequence, the figures for `[2H]C([2H])([2H])C#CC(=O)N1CC[C@H](N2CC(c3cc(C)c4c(c3)Nc3ncnc(N5CCS(=O)(=O)CC5)c3[C@@H](C)O4)C2)C1` (single isomer, unassigned) [compound 166] were 0.141 µM and greater than 10 µM.
For `CCC#CC(=O)N1CC[C@@H](N2CC(c3cc(C)c4c(c3)Nc3ncnc(N5CCS(=O)(=O)CC5)c3[C@@H](C)O4)C2)C1` (single isomer, unassigned) [compound 167], the IC50 was 0.055 µM in assay [1] and greater than 10 µM in assay [2].
Regarding `CCC#CC(=O)N1CC[C@H](N2CC(c3cc(C)c4c(c3)Nc3ncnc(N5CCS(=O)(=O)CC5)c3[C@@H](C)O4)C2)C1` (single isomer, unassigned) [compound 168], the results for the IC50 in assay [1] and in assay [2] were 0.132 µM and greater than 10 µM, respectively.
The corresponding values for `Cc1cc(C2CN([C@H]3CCN(C(=O)C#CCN(C)C)C3)C2)cc2c1O[C@H](C)c1c(ncnc1N1CCS(=O)(=O)CC1)N2` (single isomer, unassigned) [compound 170] are less than 0.00977 µM and 7.24 µM.
The corresponding values for `Cc1cc(C2CN([C@@H]3CCN(C(=O)C#CCN(C)C)C3)C2)cc2c1O[C@H](C)c1c(ncnc1N1CCS(=O)(=O)CC1)N2` (single isomer, unassigned) [compound 171] are less than 0.00977 µM and 8.51 µM.
For `Cc1cc(C2CN([C@H]3CCN(C(=O)C#CCCN(C)C)C3)C2)cc2c1O[C@H](C)c1c(ncnc1N1CCS(=O)(=O)CC1)N2` (single isomer, unassigned) [compound 176], the IC50 was less than 0.00977 µM in assay [1] and 9.12 µM in assay [2].
The corresponding values for `Cc1cc(C2CN([C@@H]3CCN(C(=O)C#CCCN(C)C)C3)C2)cc2c1O[C@H](C)c1c(ncnc1N1CCS(=O)(=O)CC1)N2` (single isomer, unassigned) [compound 177] are roughly 0.0129 µM and 7.24 µM.
`CC#CC(=O)N1CCOC([C@H]2C[C@H](c3cc(C)c4c(c3)Nc3ncnc(N5CCS(=O)(=O)CC5)c3[C@@H](C)O4)C2)C1` (single isomer, unassigned) [compound 185]: the figures for the IC50 in assay [1] and in assay [2] were roughly 0.38 µM and greater than 10 µM, respectively.
Regarding `CC#CC(=O)N1CCOC([C@H]2C[C@H](c3cc(C)c4c(c3)Nc3ncnc(N5CCS(=O)(=O)CC5)c3[C@@H](C)O4)C2)C1` (single isomer, unassigned) [compound 186], the IC50 in assay [1] is 0.269 µM. Also, in assay [2], the “CDK7_ A549 mutant hCDK7(pIC50)” value was less than 5.
`CC#CC(=O)N1CCOC([C@H]2C[C@@H](c3cc(C)c4c(c3)Nc3ncnc(N5CCS(=O)(=O)CC5)c3[C@@H](C)O4)C2)C1` (single isomer, unassigned) [compound 187]: the IC50 was 6.17 µM in assay [1] and greater than 10 µM in assay [2].
The compound `CC#CC(=O)N1CCOC([C@H]2C[C@@H](c3cc(C)c4c(c3)Nc3ncnc(N5CCS(=O)(=O)CC5)c3[C@@H](C)O4)C2)C1` (single isomer, unassigned) [compound 188] had an IC50 in assay [1] of 0.389 µM. The “CDK7_ A549 mutant hCDK7(pIC50)” value in assay [2] is less than 5.
In the case of `C=CC(=O)N1CC(N2CCC(c3cc(C)c4c(c3)Nc3ncnc(N5CCOC6(COC6)C5)c3CO4)CC2)C1` [compound 68], the IC50 in assay [1] was 0.0871 µM; in assay [2] it was greater than 10 µM.
`C=CC(=O)N1CC(N2CCC(c3cc(C)c4c(c3)Nc3ncnc(N5CCC(S(C)(=O)=O)CC5)c3CO4)CC2)C1` [compound 70]: the IC50 in assay [1] and in assay [2] was greater than 10 µM each time.
For the compound `C=CC(=O)N1CCC(N2CC(c3cc(C)c4c(c3)Nc3ncnc(N5CCS(=O)(=O)CC5)c3CO4)C2)C1` (stereo not drawn) [compound 112], the IC50 is 0.204 µM in assay [1] and greater than 10 µM in assay [2].
The corresponding values for `CC#CC(=O)N1CC[C@H](N2CC(c3cc(C)c4c(c3)Nc3ncnc(N5CCS(=O)(=O)CC5)c3CO4)C2)C1` [compound 126] are 0.513 µM and greater than 10 µM.
On to `CC#CC(=O)N1CC[C@@H](N2CC(c3cc(C)c4c(c3)Nc3ncnc(N5CCS(=O)(=O)CC5)c3CO4)C2)C1` [compound 127], for which the IC50 is 0.513 µM in assay [1] and greater than 10 µM in assay [2].
The corresponding values for `CC#CC(=O)N1CC(N2CC(c3cc(C)c4c(c3)Nc3ncnc(N5CCS(=O)(=O)CC5)c3CO4)C2)C1` [compound 132] are 0.813 µM and greater than 10 µM.
Take `CC#CC(=O)N1CC[C@@H](N2CC(c3cc(C)c4c(c3)Nc3ncnc(N5CCS(=O)(=O)CC5)c3[C@@H](C)O4)C2)C1` [compound 141]: the IC50 in assay [1] is 0.162 µM. Besides, the “CDK7_ A549 mutant hCDK7(pIC50)” value in assay [2] is less than 5.
Take `CC#CC(=O)N1CC[C@H](N2CC(c3cc(C)c4c(c3)Nc3ncnc(N5CCS(=O)(=O)CC5)c3[C@@H](C)O4)C2)C1` [compound 142]: in assay [1], the IC50 was 0.355 µM. The “CDK7_ A549 mutant hCDK7(pIC50)” value in assay [2] is reported as less than 5.
With `CC#CC(=O)N1CC(OC2CCN(c3cc(C)c4c(c3)Nc3ncnc(N5CCS(=O)(=O)CC5)c3[C@@H](C)O4)CC2)C1` [compound 143], the IC50 is 0.912 µM in assay [1] and greater than 10 µM in assay [2].
In the case of `CC#CC(=O)N1CCC(N2CCC(c3cc(C)c4c(c3)Nc3ncnc(N5CCS(=O)(=O)CC5)c3CO4)CC2)C1` (stereo not drawn) [compound 152], the IC50 is 0.0646 µM in assay [1] and roughly 8.32 µM in assay [2].
Consider `CC#CC(=O)N1CCC(N2CCC(c3cc(C)c4c(c3)Nc3ncnc(N5CCS(=O)(=O)CC5)c3[C@@H](C)O4)CC2)CC1` [compound 156], for which the IC50 in assay [1] was less than 0.00245 µM; in assay [2], 1.95 µM.
With `CC#CC(=O)N1CC(N2CCC(c3cc(C)c4c(c3)Nc3ncnc(N5CCS(=O)(=O)CC5)c3[C@@H](C)O4)CC2)C1` [compound 157], the IC50 in assay [1] is 0.0759 µM. The “CDK7_ A549 mutant hCDK7(pIC50)” value in assay [2] is 5.12.
`CC#CC(=O)N1CC(N2CCC(c3cc(C)c4c(c3)Nc3ncnc(N5CCS(=O)(=O)CC5)c3[C@@H](C)O4)CC2)C1` [compound 158] showed an IC50 in assay [1] of 0.0741 µM. In addition, the “CDK7_ A549 mutant hCDK7(pIC50)” value in assay [2] is recorded as roughly 5.22.
For `CC#CC(=O)N1CCN([C@H]2CC[C@H](c3cc(C)c4c(c3)Nc3ncnc(N5CCS(=O)(=O)CC5)c3[C@@H](C)O4)CC2)CC1` [compound 161], the IC50 in assay [1] was less than 0.00977 µM; in assay [2] it was greater than 10 µM.
Taken in the same sequence, the figures for `CC#CC(=O)N1CCN([C@H]2CC[C@@H](c3cc(C)c4c(c3)Nc3ncnc(N5CCS(=O)(=O)CC5)c3[C@@H](C)O4)CC2)CC1` [compound 162] were 0.209 µM and greater than 10 µM.
On to `CCC#CC(=O)N1CC(N2CCC(c3cc(C)c4c(c3)Nc3ncnc(N5CCS(=O)(=O)CC5)c3[C@@H](C)O4)CC2)C1` [compound 163], for which the IC50 in assay [1] was roughly 0.0316 µM; in assay [2], greater than 10 µM.
As for `[2H]C([2H])([2H])C#CC(=O)N1CC(N2CCC(c3cc(C)c4c(c3)Nc3ncnc(N5CCS(=O)(=O)CC5)c3[C@@H](C)O4)CC2)C1` [compound 164], the IC50 in assay [1] is 0.0537 µM; in assay [2], greater than 10 µM.
The corresponding values for `Cc1cc(C2CCN(C3CN(C(=O)C#CCN(C)C)C3)CC2)cc2c1O[C@H](C)c1c(ncnc1N1CCS(=O)(=O)CC1)N2` [compound 169] are less than 0.00245 µM and 4.17 µM.
With `CC#CC(=O)N1CCC([C@H]2CC[C@H](c3cc(C)c4c(c3)Nc3ncnc(N5CCS(=O)(=O)CC5)c3[C@@H](C)O4)CC2)CC1` [compound 172], the IC50 in assay [1] is 0.355 µM; in assay [2], greater than 10 µM.
Take `CC#CC(=O)N1CCC([C@H]2CC[C@@H](c3cc(C)c4c(c3)Nc3ncnc(N5CCS(=O)(=O)CC5)c3[C@@H](C)O4)CC2)CC1` [compound 173]: the IC50 in assay [1] and in assay [2] was greater than 10 µM each time.

These data come from patent US20240109912A1, “TRICYCLIC PYRIMIDINES AS CYCLIN-DEPENDENT KINASE 7 (CDK7) INHIBITORS” (JANSSEN PHARMACEUTICA NV, priority 2020, published 2024).
